Results as given in patent US9365522B2, “Pyrazole amide derivative” (AMGEN INC., priority 2015, dated 2016).

target: T1, ligand binding domain of human ROR gamma (Homo sapiens, UniProt P51449); test: ROR gamma reporter gene assay (GAL4-RORγ LBD luciferase, Dual-Glo); format: cell-based; details: HEK293T cells transfected with pM-ROR gamma, 8 concentrations 3.5 nM to 10.5 μM, 24 h incubation; read-out: result (pIC50, inhibition of RORγ transcriptional activity) (converted)
T1 construct: NM_001001523; expressed in transfected cells; host or cells: HEK293T
T1 sequence (P51449 247-497 isoform P51449-2): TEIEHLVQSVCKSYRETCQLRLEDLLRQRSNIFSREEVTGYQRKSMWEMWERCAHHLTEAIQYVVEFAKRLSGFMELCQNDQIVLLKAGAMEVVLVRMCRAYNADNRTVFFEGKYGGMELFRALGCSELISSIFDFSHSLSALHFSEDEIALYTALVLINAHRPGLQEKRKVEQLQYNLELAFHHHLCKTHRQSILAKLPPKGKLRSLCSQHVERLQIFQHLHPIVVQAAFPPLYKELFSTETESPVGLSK
Outline: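 First, HEK293T cells are transfected with the GAL4–RORγ LBD construct, a 5×UAS luciferase reporter and a constitutive renilla control. Next, test compounds are added over eight concentrations (3.5 nM to 10.5 μM). After 24 h at 37 °C, Dual-Glo luminescence is measured and pIC50 fitted.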

Row | SMILES | IC50 [pM]
1 | CCC(C)(C)CN(CC(=O)c1c(Cl)cncc1Cl)C(=O)c1cnn(C23CCC(C(=O)O)(CC2)CC3)c1C(F)(F)F [Example 288, 4-(4-((2-(3,5-dichloropyridin-4-yl)-2-oxoethyl)-(2,2-dimethylbutyl)carbamoyl)-5-(trifluoromethyl)pyrazol-1-yl)bicyclo[2.2.2]octane-1-carboxylic acid] | 11700
2 | C[C@]1(C(=O)O)CC[C@H](n2ncc(C(=O)N(CC(=O)c3c(Cl)cc(F)cc3Cl)C3CC4CCC(C3)N4)c2C(F)(F)F)CC1 (stereo partly drawn) [Example 304, trans-4-(4-(8-azabicyclo [3.2.1]octan-3-yl-(2-[2,6-dichloro-4-fluorophenyl)-2-oxoethyl)carbamoyl)-5-(trifluoromethyl)pyrazol-1-yl)-1-methylcyclohexane-1-carboxylic acid] | > 1.05e+07
3 | CC12CCC(CN(CC(=O)c3c(Cl)cc(Cl)cc3Cl)C(=O)c3cnn([C@H]4CC[C@](C)(C(=O)O)CC4)c3C(F)(F)F)(CC1)O2 [Example 260, trans-4-(4-((1-methyl-7-oxabicyclo[2.2.1]heptan-4-yl)methyl-(2-oxo-2-(2,4,6-trichlorophenyl)ethyl)carbamoyl)-5-(trifluoromethyl)pyrazol-1-yl)-1-methylcyclohexane-1-carboxylic acid] | 6030
4 | Cc1cc(Cl)c(C(=O)CN(C(=O)c2cnn([C@H]3CC[C@](C)(C(=O)O)CC3)c2Cl)[C@H]2C[C@@H]3[C@H](C2)C3(C)C)c(Cl)c1 [Example 366, trans-4-(5-chloro-4-((2-(2,6-dichloro-4-methylphenyl)-2-oxoethyl)((1R,3r,5S)-6,6-dimethylbicyclo[3.1.0]hexan-3-yl)carbamoyl)-1H-pyrazol-1-yl)-1-methylcyclohexanecarboxylic acid] | 15100
5 | Cc1ccc(N)c(C(=O)CN(Cc2cc(F)cc(F)c2)C(=O)c2cnn([C@H]3CC[C@H](C(=O)O)CC3)c2C(F)(F)F)c1 [Example 143, trans-4-(4-((2-(2-amino-5-methylphenyl)-2-oxoethyl)-((3,5-difluorophenyl)methyl)carbamoyl)-5-(trifluoromethyl)pyrazol-1-yl)cyclohexane-1-carboxylic acid] | 2.24e+06
6 | Cc1cncc(Cl)c1C(=O)CN(CC(C)(C)C)C(=O)c1cnn([C@H]2CC[C@](C)(C(=O)O)CC2)c1C(F)(F)F [Example 379, trans-4-(4-((2-(3-chloro-5-methylpyridin-4-yl)-2-oxoethyl)-(2,2-dimethylpropyl)carbamoyl)-5-(trifluoromethyl)pyrazol-1-yl)-1-methylcyclohexane-1-carboxylic acid] | 79400
7 | CC12CCC(CN(CC(=O)c3c(Cl)cncc3Cl)C(=O)c3cnn([C@H]4CC[C@](C)(C(=O)O)CC4)c3C(F)(F)F)(CC1)C2 [Example 267, trans-4-(4-((2-(3,5-dichloropyridin-4-yl)-2-oxoethyl)-((1-methyl-4-bicyclo[2.2.1]heptanyl)methyl)carbamoyl)-5-(trifluoromethyl)pyrazol-1-yl)-1-methylcyclohexane-1-carboxylic acid] | 13500
8 | CC1(C)CCC(N(CC(=O)c2c(Cl)cc(Cl)cc2Cl)C(=O)c2cnn(C34CCC(C(=O)O)(CC3)CC4)c2C(F)(F)F)CC1 [Example 231, 4-(4-((4,4-dimethylcyclohexyl)-(2-oxo-2-(2,4,6-trichlorophenyl)ethyl)carbamoyl)-5-(trifluoromethyl)pyrazol-1-yl)bicyclo[2.2.2]octane-1-carboxylic acid] | 10700
9 | Cc1cc(Cl)cc(C)c1C(=O)CN(Cc1cc(F)cc(F)c1)C(=O)c1cnn([C@H]2CC[C@H](C(=O)O)CC2)c1C(F)(F)F [Example 268, trans-4-(4-((2-(4-chloro-2,6-dimethylphenyl)-2-oxoethyl)-((3,5-difluorophenyl)methyl)carbamoyl)-5-(trifluoromethyl)pyrazol-1-yl)cyclohexane-1-carboxylic acid] | 107000
10 | CC(C)(C)CN(CC(=O)c1c(Cl)cccc1Cl)C(=O)c1cnn(C23CCC(C(=O)O)(CC2)CC3)c1C(F)(F)F [Example 317, 4-(4-((2-(2,6-dichlorophenyl)-2-oxoethyl)-(2,2-dimethylpropyl)carbamoyl)-5-(trifluoromethyl)pyrazol-1-yl)bicyclo[2.2.2]octane-1-carboxylic acid] | 10000
11 | CC(C)(C)CN(CC(=O)c1c(Cl)cncc1Cl)C(=O)c1cnn(C23CCC(C(=O)O)(CC2)CC3)c1C(F)(F)F [Example 233, 4-(4-((2-(3,5-dichloropyridin-4-yl)-2-oxoethyl)-(2,2-dimethylpropyl)carbamoyl)-5-(trifluoromethyl)pyrazol-1-yl)bicyclo[2.2.2]octane-1-carboxylic acid] | 15800

Results, then the compound that gave them:

Row | IC50 [pM] | SMILES
12 | 2.19e+06 | O=C(CN(C(=O)c1cnn([C@H]2CC[C@H](C(=O)O)CC2)c1C(F)(F)F)[C@H]1C[C@@H]1c1ccccc1)c1c(Cl)cncc1Cl [Example 161, trans-4-(4-((2-(3,5-dichloropyridin-4-yl)-2-oxoethyl)-((1S,2R)-2-phenylcyclopropyl)carbamoyl)-5-(trifluoromethyl)pyrazol-1-yl)cyclohexane-1-carboxylic acid]
13 | 75900 | O=C(CN(CC1CCCC1)C(=O)c1cnn([C@H]2CC[C@H](C(=O)O)CC2)c1C(F)(F)F)c1c(Cl)cncc1Cl [Example 29, trans-4-(4-((cyclopentylmethyl)(2-(3,5-dichloropyridin-4-yl)-2-oxoethyl)carbamoyl)-5-(trifluoromethyl)-1H-pyrazol-1-yl)cyclohexanecarboxylic acid]
14 | 38000 | O=C(CN(Cc1cc(F)cc(F)c1)C(=O)c1cnn([C@H]2CC[C@H](C(=O)O)CC2)c1C(F)(F)F)c1c(Cl)cc(C(F)(F)F)cc1Cl [Example 57, trans-4-(4-((2-(2,6-dichloro-4-(trifluoromethyl)phenyl)-2-oxoethyl)(3,5-difluorobenzyl)carbamoyl)-5-(trifluoromethyl)-1H-pyrazol-1-yl)cyclohexanecarboxylic acid]
15 | 69200 | Cc1cncc(Cl)c1C(=O)CN(C(=O)c1cnn([C@H]2CC[C@](C)(C(=O)O)CC2)c1C(F)(F)F)[C@H]1C[C@@H]2[C@H](C1)C2(C)C [Example 387, trans-4-(4-((2-(3-chloro-5-methylpyridin-4-yl)-2-oxoethyl)((1R,3r,5S)-6,6-dimethylbicyclo[3.1.0]hexan-3-yl)carbamoyl)-5-{trifluoromethyl)-1H-pyrazol-1-yl)-1-methylcyclohexanecarboxylic acid]
16 | 56200 | O=C(CN(Cc1ccccc1)C(=O)c1cnn([C@H]2CC[C@H](C(=O)O)CC2)c1C(F)(F)F)c1c(Cl)cncc1Cl [Example 40, trans-4-(4-(benzyl(2-(3,5-dichloropyridin-4-yl)-2-oxoethyl)carbamoyl)-5-(trifluoromethyl)-1H-pyrazol-1-yl)cyclohexanecarboxylic acid]
17 | 66100 | O=C(CN(C(=O)c1cnn([C@H]2CC[C@H](C(=O)O)CC2)c1C(F)(F)F)C1CCC2(CC1)CC2)c1c(Cl)cncc1Cl [Example 182, trans-4-(4-((2-(3,5-dichloropyridin-4-yl)-2-oxoethyl)-spiro[2,5]octan-6-ylcarbamoyl)-5-(trifluoromethyl)pyrazol-1-yl)cyclohexane-1-carboxylic acid]
18 | 661000 | O=C(CN(Cc1ccc(F)cc1)C(=O)c1cnn([C@H]2CC[C@@](F)(C(=O)O)CC2)c1C(F)(F)F)c1c(Cl)cncc1Cl [Example 80, trans-4-(4-((2-(3,5-dichloropyridin-4-yl)-2-oxoethyl)(4-fluorobenzyl)carbamoyl)-5-(trifluoromethyl)-1H-pyrazol-1-yl)-1-fluorocyclohexanecarboxylic acid]
19 | 25700 | O=C(c1cnn([C@H]2CC[C@H](C(=O)O)CC2)c1C(F)(F)F)N(Cc1cc(F)cc(F)c1)CC(F)(F)c1c(Cl)cncc1Cl [Example 10, trans-4-(4-((2-(3,5-dichloropyridin-4-yl)-2,2-difluoroethyl)(3,5-difluorobenzyl)carbamoyl)-5-(trifluoromethyl)-1H-pyrazol-1-yl)cyclohexanecarboxylic acid]
20 | 174000 | CC1(C)CCC(CN(CC(=O)c2c(Cl)cncc2Cl)C(=O)c2cnn([C@H]3CC[C@H](C(=O)O)CC3)c2C(F)(F)F)CO1 (some centres unmarked) [Example 130]
21 | 1.35e+06 | O=C(CN(CCC1CC1)C(=O)c1cnn([C@H]2CC[C@H](C(=O)O)CC2)c1C(F)(F)F)c1c(Cl)cncc1Cl [Example 34, trans-4-(4-((2-cyclopropylethyl)(2-(3,5-dichloropyridin-4-yl)-2-oxoethyl)carbamoyl)-5-(trifluoromethyl)-1H-pyrazol-1-yl)cyclohexanecarboxyic acid]
22 | > 1e+07 | NCc1c(C(=O)N(CC(=O)c2c(Cl)cncc2Cl)Cc2cc(F)cc(F)c2)cnn1[C@H]1CC[C@H](C(=O)O)CC1 [Example 163, trans-4-(5-(aminomethyl)-4-((2-(3,5-dichloropyridin-4-yl)-2-oxoethyl)-((3,5-difluorophenyl)methyl)carbamoyl)pyrazol-1-yl)cyclohexane-1-carboxylic acid]
23 | 1.51e+06 | COc1cncc(OC)c1C(=O)CN(Cc1cc(F)cc(F)c1)C(=O)c1cnn([C@H]2CC[C@H](C(=O)O)CC2)c1C(F)(F)F [Example 119, trans-4-(4-((3,5-difluorophenyl)methyl-(2-(3,5-dimethoxypyridin-4-yl)-2-oxoethyl)carbamoyl)-5-(trifluoromethyl)pyrazol-1-yl)cyclohexane-1-carboxylic acid]
